Here are results for two compounds from US9073880B2, “2-(2-phenylethenyl) 1,3-benzodiazepine derivatives useful for the treatment of cancer” (Yissum Research Development Company of the Hebrew …, priority 2010, dated 2015).

The subject of the assay is human colon carcinoma HCT15 cells. The assay can be described thus: Cell proliferation, HCT15 (Example 4). The class given is cell-based. The conditions noted are these: HCT-15, HCT15, colon cancer, compound in 2-hydroxypropyl-β-cyclodextrin. Here is the method: Human ovary cancer A2780 cells lines were seeded at a density of 5000 cells/well, human melanoma A375 cells were plated at a density of 2,500 cells/well, human colon carcinoma HCT15 cells were plated at a density of 3,000 cells/well, human prostate carcinoma PC3 cells were plated at a density of 1,500 cells/well, human breast carcinoma MCF7 cells were plated at a density of 5,000 cells/well, human breast carcinoma MDA MB 468 cells were plated at a density of 6,000 cells/well, human myeloma U266, RPMI8226 and CAG cells were plated at a density of 10,000 cells/well. All cells were plated in 96-well plates in 90 μl growth medium containing 10% FCS, 100 units/ml penicillin and 100 μg/ml streptomycin. Compound 3 was added a day later in […] of 1% DMSO in DDW to obtain final concentrations of 0, 0.1, 0.3, 1, 3, and 10 μM. The final concentration of DMSO (0.1% DMSO) was kept constant in all samples. […] The optical density values were read at 630 nm in ELISA plate reader. Non-adhered cells were exposed to WST-1 reagent for 5 hours following 72 hours treatment with the inhibitors, and optical density values were read at 630 nm in ELISA plate reader. The data was analyzed in Microsoft Excel, using the vehicle control as 100% proliferation. […]

As to `O=c1c(O)cc2cnc(/C=C/c3cc(O)c(O)c(Br)c3)sc-2c1O` [Compound 3], the concentration for half-maximal inhibition (IC50) is 700 nM. Under `O=c1c(O)cc2cnc(/C=C/c3ccc(O)c(O)c3Br)sc-2c1O` [Compound 5] stands 900 nM.
